In BindingDB's records for doi:10.7270/Q2TX3D82 (Future University, 2017) one finds IC50 data, which are given here for 18 compounds.

For the test, the target named is T1, Dihydrofolate reductase (Bos taurus, UniProt P00376).
T1 sequence (P00376 whole entry): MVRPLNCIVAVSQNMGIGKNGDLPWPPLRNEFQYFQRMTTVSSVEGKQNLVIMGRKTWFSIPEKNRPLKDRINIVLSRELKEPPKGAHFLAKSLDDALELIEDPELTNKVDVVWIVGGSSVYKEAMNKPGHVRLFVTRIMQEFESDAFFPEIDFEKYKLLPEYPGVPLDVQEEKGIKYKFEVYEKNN
Put plainly: Dihydrofolate Reductase (DHFR) Inhibition Assay. The settings on record: pH 7.4; 25 °C.

As a reminder, the IC50 is the concentration at which inhibition is half-maximal. High values mean a need for much substance, low ones inhibition by little substance.

`COc1ccc(/C=N/NC(=O)CSc2nc3ccc(Cl)cc3c(=O)n2-c2ccc(OC)cc2)cc1` [N'-[4-Methoxybenzylidene-2-(6-chloro)-3-(4-methoxy-phenyl)-4-oxo-3,4-dihydroquinazolin-2-yl-thio]acetohydrazide (17)]: the IC50 came to 0.01 µM.

In turn, `COc1ccc(-n2c(SCC(=O)NN)nc3cc(OC)c(OC)cc3c2=O)cc1` [2-[(6,7-Dimethoxy)-3-(4-methoxyphenyl)-4-oxo-3,4-dihydroquinazolin-2-yl-thio] acetohydrazide (15)] yielded an IC50 of 0.8 µM. In the case of `COc1ccc(-n2c(SCC(=O)N/N=C/c3ccc(Cl)cc3)nc3ccc(Cl)cc3c2=O)cc1` [N'-[4-Chlorobenzylidene-2-(6-chloro)-3-(4-methoxy-phenyl)-4-oxo-3,4-dihydroquinazolin-2-yl-thio]acetohydrazide (16)], half-maximal inhibition (IC50) was put at 19 µM. The figure for `COc1ccc(-n2c(SCc3nnc(S)n3-c3ccc(Cl)cc3)nc3cc(OC)c(OC)cc3c2=O)cc1` [(6,7-Dimethoxy)-2-((4-(4-chlorophenyl)-5-mercapto-4H-1,2,4-triazol-3-yl)methylthio)-3-(4-methoxyphenyl)quinazolin-4(3H)-one (26)] is 11 µM. In the case of `CCOC(=O)CSc1nc2cc(OC)c(OC)cc2c(=O)n1-c1ccc(OC)cc1` [Ethyl 2-(6,7-dimethoxy-3-(4-methoxyphenyl)-4-oxo-3,4-dihydroquinazolin-2-yl-thio)acetate (13)] it was 14.4 µM; in that of `CCOC(=O)CSc1nc2ccc(Cl)cc2c(=O)n1-c1ccc(OC)cc1` [Ethyl 2-(6-chloro-3-(4-methoxyphenyl)-4-oxo-3,4-dihydroquinazolin-2-yl-thio)acetate (12)], 1.7 µM. The figure for `COc1ccc(-n2c(SCC(=O)N/N=C/c3ccc(Cl)cc3)nc3cc(OC)c(OC)cc3c2=O)cc1` [N'-[4-Chlorobenzylidene-2-(6,7-dimethoxy)-3-(4-methoxy-phenyl)-4-oxo-3,4-dihydroquinazolin-2-yl-thio]acetohydrazide (18)] is 7.6 µM; for `COc1ccc(-n2c(=S)[nH]c3ccc(Cl)cc3c2=O)cc1` [6-Chloro-2-mercapto-3-(4-methoxyphenyl)quinazolin-4(3H)-ones (10)] it is 11.5 µM. With `COc1ccc(Nc2nnc(CSc3nc4ccc(Cl)cc4c(=O)n3-c3ccc(OC)cc3)s2)cc1` [6-chloro-2-((5-(4-methoxyphenylamino)-1,3,4-thiadiazol-2-yl)methylthio)-3-(4-methoxyphenyl)quinazolin-4(3H)-one (29)], the IC50 stood at 4.4 µM. The figure for `COc1ccc(-n2c(SCc3nnc(Nc4ccc(Cl)cc4)s3)nc3cc(OC)c(OC)cc3c2=O)cc1` [6,7-Dimethoxy-2-((5-(4-chlorophenylamino)-1,3,4-thiadiazol-2-yl)methylthio)-3-(4-methoxyphenyl)quinazolin-4(3H)-one (30)] is 14.7 µM.

In the case of `COc1ccc(-n2c(SCc3nnc(Nc4ccc(Cl)cc4)s3)nc3ccc(Cl)cc3c2=O)cc1` [6-Chloro-2-((5-(4-chlorophenylamino)-1,3,4-thiadiazol-2-yl)methylthio)-3-(4-methoxyphenyl)quinazolin-4(3H)-one (28)], the IC50 is 0.4 µM. The figure for `COc1ccc(C(=S)NNC(=O)CSc2nc3cc(OC)c(OC)cc3c(=O)n2-c2ccc(OC)cc2)cc1` [1-[2-(6,7-Dimethoxy)-3-(4-methoxy-phenyl)-4-oxo-3,4-dihydroquinazolin-2-yl-thio)acetyl)-4-(4-methoxy)phenyl]thiosemicarbazide (23)] is 0.6 µM; for `COc1ccc(-n2c(=S)[nH]c3cc(OC)c(OC)cc3c2=O)cc1` [(6,7-Dimethoxy)-2-mercapto-3-(4-methoxyphenyl)quinazolin-4(3H)-ones (11)] it is 29 µM; for `COc1ccc(-n2c(SCC(=O)NNC(=S)c3ccc(Cl)cc3)nc3ccc(Cl)cc3c2=O)cc1` [1-[2-(6-Chloro)-3-(4-methoxy-phenyl)-4-oxo-3,4-dihydroquinazolin-2-yl-thio)acetyl)-4-(4-chloro)phenyl]thiosemicarbazide (20)] it is 1.2 µM. For `COc1ccc(Nc2nnc(CSc3nc4cc(OC)c(OC)cc4c(=O)n3-c3ccc(OC)cc3)s2)cc1` [6,7-Dimethoxy-2-((5-(4-methoxyphenylamino)-1,3,4-thiadiazol-2-yl)methylthio)-3-(4-methoxyphenyl)quinazolin-4(3H)-one (31)], the IC50 stood at 11.8 µM. In the case of `COc1ccc(-n2c(S)nnc2CSc2nc3cc(OC)c(OC)cc3c(=O)n2-c2ccc(OC)cc2)cc1` [(6,7-Dimethoxy)-2-((4-(4-methoxyphenyl)-5-mercapto-4H-1,2,4-triazol-3-yl)methylthio)-3-(4-methoxyphenyl)quinazolin-4(3H)-one (27)] it was 10.8 µM.

The compound `COc1ccc(-n2c(SCC(=O)NN)nc3ccc(Cl)cc3c2=O)cc1` [2-[6-Chloro-3-(4-methoxyphenyl)-4-oxo-3,4-dihydroquinazolin-2-yl-thio] acetohydrazide (14)] displayed an IC50 of 7.5 µM.

For the compound `COc1ccc(/C=N/NC(=O)CSc2nc3cc(OC)c(OC)cc3c(=O)n2-c2ccc(OC)cc2)cc1` [N'-[4-Methoxybenzylidene-2-(6,7-dimethoxy)-3-(4-methoxy-phenyl)-4-oxo-3,4-dihydroquinazolin-2-yl-thio]acetohydrazide (19)], it took 8 µM to reach half-maximal inhibition (IC50).
